Results: patent US9512120B2, “Microbicidally active imidazopyridine derivatives” (Syngenta Participations AG, priority 2013, dated 2016)

Key:
[1] = system: Thanatephorus cucumeris (Rhizoctonia solani); assay: Thanatephorus cucumeris (Rhizoctonia solani) / liquid culture (foot rot, damping-off); type: cell-based; conditions: PDB, 24° C., 3-4 days after application, read-out: control of Thanatephorus cucumeris (inhibition of growth, photometric)
Protocol: Thanatephorus cucumeris (Rhizoctonia solani)/Liquid Culture (Foot Rot, Damping-Off): Mycelia fragments of a newly grown liquid culture of the fungus are directly mixed into nutrient broth (PDB potato dextrose broth). After placing a DMSO solution of the test compounds into a 96-well microtiter plate at an application rate of 200 ppm, the nutrient broth containing the fungal material was added. The test plates were incubated at 24° C. and the inhibition of growth was determined photometrically 3-4 days after application.

Pyrenophora teres = Pyrenophora teres / barley / leaf disc preventative (net blotch); type: in vivo; conditions: foliar, barley leaf segments cv Hasso, inoculated two days after application, assessed 5-7 days after application, read-out: control of Pyrenophora teres (disease control compared to untreated)
Protocol: Pyrenophora Teres/Barley/Leaf Disc Preventative (Net Blotch): Barley leaf segments cv Hasso are placed on agar in a 24-well plate and sprayed with formulated test compound diluted in water at an application rate of 200 ppm. The leaf segments are inoculated with a spore suspension of the fungus two days after application of the test solution. The inoculated leaf segments are incubated at 20° C. and 65% relative humidity under a light regime of 12/12 h (light/dark) in a climate cabinet and the activity of a compound is assessed as disease control compared to untreated when an appropriate level of disease damage appears in untreated check leaf segments (5-7 days after application).

[2] = system: Mycosphaerella graminicola (Septoria tritici); assay: Mycosphaerella graminicola (Septoria tritici) / liquid culture (Septoria blotch); type: cell-based; conditions: Zymoseptoria tritici, PDB, 24° C., 4-5 days after application, read-out: control of Mycosphaerella graminicola (inhibition of growth, photometric)
Protocol: Mycosphaerella graminicola (Septoria tritici)/Liquid Culture (Septoria Blotch): Conidia of the fungus from cryogenic storage were directly mixed into nutrient broth (PDB potato dextrose broth). After placing a DMSO solution of test compound into a 96-well microtiter plate at an application rate of 200 ppm, the nutrient broth containing the fungal spores was added. The test plates were incubated at 24° C. and the inhibition of growth was determined photometrically 4-5 days after application.

## Nc1ncnn1-c1nc2cncc(-c3ccccc3Cl)c2n1C1CC1 [Compound 125, 2-[7-(2-chlorophenyl)-1-cyclopropylimidazo[4,5-c]pyridin-2-yl]-1,2,4-triazol-3-amine]
[1]
  inhibition at 20 ppm: ≥ 80%

## CCn1c(-n2ncnc2N)nc2cncc(C=Cc3ccc(C)cc3)c21 [Compound 71, 2-[1-ethyl-7-[2-(4-methylphenyl)ethenyl]imidazo[4,5-c]pyridin-2-yl]-1,2,4-triazol-3-amine]
[1]
  inhibition at 20 ppm: ≥ 80%

## CCn1c(-n2ncnc2N)nc2cncc(-c3cnc(Cl)c(C)c3)c21 [Compound 65, 2-[7-(6-chloro-5-methylpyridin-3-yl)-1-ethylimidazo[4,5-c]pyridin-2-yl]-1,2,4-triazol-3-amine]
[1]
  inhibition at 20 ppm: ≥ 80%
Pyrenophora teres
  pest or weed control at 200 ppm: ≥ 80%

## CCn1c(-n2ncnc2N2C(=O)CCC2=O)nc2cncc(C(C)=O)c21 [Compound 113, 1-[2-(7-acetyl-1-ethylimidazo[4,5-c]pyridin-2-yl)-1,2,4-triazol-3-yl]pyrrolidine-2,5-dione]
Pyrenophora teres
  pest or weed control at 200 ppm: ≥ 80%

## CCn1c(-n2ncnc2N)nc2cncc(-c3ccccc3C(F)(F)F)c21 [Compound 32, 2-[1-ethyl-7-[2-(trifluoromethyl)phenyl]imidazo[4,5-c]pyridin-2-yl]-1,2,4-triazol-3-amine]
[1]
  inhibition at 20 ppm: ≥ 80%
Pyrenophora teres
  pest or weed control at 200 ppm: ≥ 80%

## CCn1c(-n2ncnc2N)nc2cncc(-c3cccnc3OC)c21 [Compound 58, 2-[1-ethyl-7-(2-methoxypyridin-3-yl)imidazo[4,5-c]pyridin-2-yl]-1,2,4-triazol-3-amine]
[1]
  inhibition at 20 ppm: ≥ 80%
Pyrenophora teres
  pest or weed control at 200 ppm: ≥ 80%

## CCn1c(-n2ncnc2N)nc2cncc(-c3ccc(C(F)(F)F)nc3)c21 [Compound 63, 2-[1-ethyl-7-[6-(trifluoromethyl)pyridin-3-yl]imidazo[4,5-c]pyridin-2-yl]-1,2,4-triazol-3-amine]
[1]
  inhibition at 20 ppm: ≥ 80%
Pyrenophora teres
  pest or weed control at 200 ppm: ≥ 80%

## Cc1cncc2nc(-n3ncnc3N)n(C3CC3)c12 [Compound 175, 2-(1-cyclopropyl-7-methyl-imidazo[4,5-c]pyridin-2-yl)-1,2,4-triazol-3-amine]
Pyrenophora teres
  pest or weed control at 200 ppm: ≥ 80%

## CCn1c(-n2ncnc2N2C(=O)CCC2=O)nc2cncc(-c3ccc(Cl)cc3Cl)c21 [Compound 114]
Pyrenophora teres
  pest or weed control at 200 ppm: ≥ 80%

## CCOC(=O)C(C)O/N=C(\C)c1cncc2nc(-n3ncnc3N)n(CC)c12 (stereo not shown) [Compound 159]
[1]
  inhibition at 20 ppm: ≥ 80%

## CCn1c(-n2ncnc2N)nc2cncc(C(C)=NOCc3cc(Cl)c(Cl)cc3Cl)c21 [Compound 164]
[1]
  inhibition at 20 ppm: ≥ 80%
[2]
  inhibition at 20 ppm: ≥ 80%
Pyrenophora teres
  pest or weed control at 200 ppm: ≥ 80%

## Nc1ncnn1-c1nc2cncc(-c3ccc(Cl)cc3Cl)c2n1C1CC1 [Compound 119, 2-[1-cyclopropyl-7-(2,4-dichlorophenyl)imidazo[4,5-c]pyridin-2-yl]-1,2,4-triazol-3-amine]
[1]
  inhibition at 20 ppm: ≥ 80%
[2]
  inhibition at 20 ppm: ≥ 80%
Pyrenophora teres
  pest or weed control at 200 ppm: ≥ 80%

## CCn1c(-n2ncnc2N)nc2cncc(C=CC3CCCCC3)c21 [Compound 70, 2-[7-(2-cyclohexylethenyl)-1-ethylimidazo[4,5-c]pyridin-2-yl]-1,2,4-triazol-3-amine]
[2]
  inhibition at 20 ppm: ≥ 80%
Pyrenophora teres
  pest or weed control at 200 ppm: ≥ 80%

## CCn1c(-n2ncnc2N)nc2cncc(-c3cc4ccccc4o3)c21 [Compound 51, 2-[7-(1-benzofuran-2-yl)-1-ethylimidazo[4,5-c]pyridin-2-yl]-1,2,4-triazol-3-amine]
[1]
  inhibition at 20 ppm: ≥ 80%
Pyrenophora teres
  pest or weed control at 200 ppm: ≥ 80%

## CCn1c(-n2ncnc2N)nc2cncc(-c3ccc(C)c([N+](=O)[O-])c3)c21 [Compound 44, 2-[1-ethyl-7-(4-methyl-3-nitrophenyl)imidazo[4,5-c]pyridin-2-yl]-1,2,4-triazol-3-amine]
[1]
  inhibition at 20 ppm: ≥ 80%
